From patent US4145554A, “3-Nitropyrazole derivatives” (Eli Lilly and Company, priority 1977, dated 1979)
Values after ≈ are worked out from the molar mass of the structure shown. Read-outs that look alike come from different tables or passages of the source.

Legend:
E. amylovora = experiment: Fire blight of apple, induced infection of McIntosh apple seedlings; type: in vivo; settings: 6 days, scale 1 (symptoms in main stem) to 4 (complete control)
Excerpt: A typical test of one of our compounds against an induced E. amylovora infection of McIntosh apple seedlings will be reported. The compound, [2-(4-carbamoyl-3-nitropyrazol-1-yl)ethyl] phenyl carbonate, was sprayed on the seedlings as an aqueous dispersion at the concentrations shown below. Four replicate trees were used per treatment. After the spray had dried, each tree was challenged by punching a hole through the midvein at the tip of one leaf per plant, and placing a drop of an E. amylovora culture in the hole.
After 6 days, the trees were observed, and the control of the infection was rated on the following scale.
1 = disease symptoms in main stem
2 = disease symptoms in petiole
3 = disease symptoms in the leaf only
4 = complete control of disease
The results are shown below as the mean disease control rating.

[1] = tested on: mycoplasma which causes aster yellows; experiment: Aster yellows disease test; type: in vivo, aster plants; settings: 20 days
Excerpt: The following data report a test of an exemplary compound against aster yellows disease. The compound, [2-(4-carbamoyl-3-nitropyrazol-1-yl)ethyl] phenyl carbonate, was applied to aster plants as an aqueous dispersion at concentrations shown below. Two plants were sprayed with each concentration. Each pair of plants was placed in a wire mesh cage, and four leafhoppers infected with the mycoplasma which causes aster yellows were placed in each cage. After 20 days, the plants were observed and disease control was rated as the percent of the plants' surface affected by the disease.

H. meleagridis = experiment: Blackhead in poultry, chicks; type: in vivo
Method: One- to three-week-old chicks and turkey poults were obtained from homogeneous source flocks and allocated into treatment groups. Some groups were held as infected, untreated controls, and other groups were treated with 3-nitropyrazoles by administering the compounds in the birds' feed. Various concentrations of the pyrazoles were administered to determine the least concentration which protected the birds. A few days after the administration of medicated feed began, all of the birds were challenged by rectally administering a suspension of at least 5,000 H. meleagridis protozoa per chick. The challenge organisms had been originally obtained from infected chickens, and were grown in vitro to provide a supply of organisms for testing.
The birds were held for about seven days after the challenge was administered, during which time the administration of pyrazole-medicated feed was continued. Then all of the chicks, including the untreated, infected controls, were sacrificed and necropsied. The cecum and the liver of each bird were examined for characteristic H. meleagridis lesions.
For each compound, the lowest feed concentration which gave an active response is indicated. While feed consumption data were not taken during the tests, the birds ate at such a rate that a feed concentration of 0.02 percent is equivalent to a treatment rate of about 10 mg./kg./day.

Salmonella typhimurium = experiment: Salmonellosis in chickens, single injection to day-old chicks; type: in vivo; settings: Salmonella enterica, TYPHIMURIUM, 168 h; single injection of 60 mg./kg.; seven days; read-out: Survival (converted)
Method: A number of our 3-nitropyrazoles have been tested against an induced infection of Salmonella typhimurium in day-old chicks. The test was conducted by administering a single injection of 60 mg./kg. of the compounds to each of five chicks. The following day, the chicks were challenged by the subcutaneous injection of a dispersion of S. typhimurium organisms sufficient to kill most or all of the untreated control chicks.
Some of the compounds were tested more than once, in which instances the data are reported as the total survivors from the multiple treatment groups. Untreated, challenged control groups of chicks were tested together with each batch of groups of chicks to which test compounds were administered. Since the mortality of the untreated control chicks varied somewhat from one group of tests to another, results of the untreated control groups are reported below with each test.

Mycoplasma hyorhinis = experiment: in vitro tube dilution test (MIC); type: cell-based
Excerpt: (§1) Our compound, 1-(2-hydroxyethyl)-3-nitro-4-pyrazolecarboxamide, has been extensively tested in vitro to determine the range of microorganisms against which it is active. The table of data below reports the minimum inhibitory concentration (MIC) at which the compound is effective in controlling a variety of microorganisms in a standard tube dilution test system. The MIC is reported as micrograms of compound per milliliter.
(§2) The other preferred compounds of our invention have also been thoroughly tested in the in vitro tube dilution test.

Pseudomonas sp. = experiment: in vitro tube dilution test (MIC); type: cell-based
Excerpt: as §1, §2

[2] = tested on: Salmonella heidelburg 1593; experiment: in vitro tube dilution test (MIC); type: cell-based; settings: Salmonella heidelburg 1593, tube dilution
Excerpt: as §1, §2

Salmonella pullorum Ill. = experiment: in vitro tube dilution test (MIC); type: cell-based; settings: Salmonella enterica
Excerpt: as §1, §2

[3] = tested on: Salmonella typhimurium 1335; experiment: in vitro tube dilution test (MIC); type: cell-based; settings: Salmonella enterica; Salmonella typhimurium 1335, tube dilution
Excerpt: as §1, §2

Pasteurella multocida = experiment: in vitro tube dilution test (MIC); type: cell-based; settings: tube dilution, read-out: MIC
Outline: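 Standard tube dilution test; MIC is the lowest compound concentration controlling growth, given in μg/mL.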

Escherichia coli 0127 = experiment: in vitro tube dilution test (MIC); type: cell-based; settings: Escherichia coli 0127, tube dilution
Excerpt: as §2

[4] = tested on: Mycoplasma gallisepticum 38502; experiment: in vitro tube dilution test (MIC); type: cell-based; settings: Mycoplasmoides gallisepticum; Mycoplasma gallisepticum 38502, tube dilution
Excerpt: as §2

[5] = tested on: Staphylococcus aureus 3055; experiment: in vitro tube dilution test (MIC); type: cell-based; settings: Staphylococcus aureus 3055, tube dilution
Excerpt: as §2

Salmonella dublin = experiment: in vitro tube dilution test (MIC); type: cell-based; settings: Salmonella enterica; Salmonella dublin, tube dilution; read-out: MIC
[6] = tested on: Staphylococcus aureus sp. 1130; experiment: in vitro tube dilution test (MIC); type: cell-based; settings: read-out: MIC
Vibrio coli 3811 = experiment: in vitro tube dilution test (MIC); type: cell-based; settings: Campylobacter coli; Vibrio coli 3811, tube dilution; read-out: MIC
Erwinia amylovora = experiment: Fire blight of pear, in vivo greenhouse test
Method: An in vivo test was conducted against the fire blight organism, Erwinia amylovora. Plants infected with E. amylovora were sprayed with aqueous dispersions containing 100 ppm. and 500 ppm. of the test compounds. […] The compounds are identified below by their compound numbers in the above listing.

P. multocida [7] = experiment: Mice infected with P. multocida, compound in drinking water; type: in vivo; settings: 7 days
Method: Some of the 3-nitropyrazoles were also administered to mice infected with P. multocida. Tests were conducted in which the pyrazoles were administered both by injection and in the drinking water.
The table below reports results of tests in which the compound was administered in the water. Groups of 10 standardized white mice were segregated, and each mouse was infected by injecting a broth culture of P. multocida subcutaneously. The administration of the test compounds was begun at the same time the mice were infected by adding a known amount of the test compound to the drinking water of the mice. One group of infected control mice received no treatment. The mice were observed, and the test was concluded at the end of 7 days. The number of mice in each group which survived the P. multocida infection was recorded.

P. multocida [8] = experiment: Mice infected with P. multocida, compound injected subcutaneously; type: in vivo
Method: A second test was conducted in much the same way, except that the 3-nitropyrazole was injected to the treated mice subcutaneously at the same time they were infected with the P. multocida culture.

S. typhimurium = experiment: Salmonella typhimurium in chickens, medicated feed; type: in vivo, chicks; settings: Test C, 200 gm./ton feed
avian E. coli = experiment: Colibacillosis in chickens, medicated feed; type: in vivo
Escherichia coli = experiment: in vitro tube dilution test (MIC); type: cell-based; settings: tube dilution, read-out: MIC
Outline: (§3)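 Standard tube dilution test; MIC reported as micrograms of compound per milliliter.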

Mycoplasma gallisepticum = experiment: in vitro tube dilution test (MIC); type: cell-based; settings: Mycoplasmoides gallisepticum; Mycoplasma gallisepticum, tube dilution; read-out: MIC
Outline: as §3

Streptococcus sp. 80 = experiment: in vitro tube dilution test (MIC); type: cell-based; settings: Streptococcus sp. 80, tube dilution; read-out: MIC
Excerpt: Other compounds of our invention have also been tested in the tube dilution test and shown to have in vitro activity against a number of microorganisms. The table below reports tests of a number of exemplary compounds against exemplary microorganisms. The compounds are identified by their numbers in the listing above. The data are reported as the MIC in micrograms per milliliter against the named exemplary microorganisms.

[9] = tested on: Trypanosoma cruzi (BHC/10 strain); experiment: use against Trypanosoma cruzi in rodents; type: in vivo; settings: 12.5 mg./kg. for 10 days
Method: Some 3-nitropyrazoles have been used against Trypanosoma cruzi in rodents. The 3-nitro-1-vinyl-4-pyrazolecarboxamide killed 91 percent of T. cruzi of the BHC/10 strain when administered at 12.5 mg./kg. for 10 days.

[10] = 100 gm./ton, further test, about 5 weeks of age
[11] = 200 gm./ton, further test, about 5 weeks of age
[12] = 300 gm./ton feed, about 5 weeks old, 10^-2 dilution challenge, first test

## NC(=O)c1cn(CCOC(=O)Oc2ccccc2)nc1[N+](=O)[O-] [Compound 77, [2-(4-carbamoyl-3-nitropyrazol-1-yl)ethyl] phenyl carbonate]
E. amylovora; 200 ppm.
  mean disease control rating: 2.5
E. amylovora; 400 ppm.
  mean disease control rating: 3.5
E. amylovora; 600 ppm.
  mean disease control rating: 3.0
E. amylovora; 800 ppm.
  mean disease control rating: 3.4
E. amylovora; 1000 ppm.
  mean disease control rating: 3.5
E. amylovora; 1200 ppm.
  mean disease control rating: 3.5
[1]; Concentration 200 (unit not given)
  Percent Infection (percent of plants' surface affected): 0%
[1]; Concentration 400 (unit not given)
  Percent Infection (percent of plants' surface affected): 25%
[1]; Concentration 800 (unit not given)
  Percent Infection (percent of plants' surface affected): 0%
H. meleagridis
  Active Level (lowest feed concentration which gave an active response): .02%
Salmonella typhimurium
  responders at 60 mg/kg: 80%

## CC(=O)OCCn1cc(C(N)=O)c([N+](=O)[O-])n1 [Compound 80, 2-(4-carbamoyl-3-nitropyrazol-1-yl)ethyl acetate]
Mycoplasma hyorhinis
  MIC: 50 µg/mL
Pseudomonas sp.
  MIC: 25 µg/mL
[2]
  MIC: 12.5 µg/mL
Salmonella pullorum Ill.
  MIC: < 1.56 µg/mL
[3]
  MIC: 12.5 µg/mL
Pasteurella multocida
  MIC: 25 µg/mL
Escherichia coli 0127
  MIC: 100 µg/mL
[4]
  MIC: 25 µg/mL
[5]
  MIC: 10 µg/mL
Salmonella dublin
  MIC: 12.5 µg/mL
[6]; Staphylococcus aureus, SP.1130, Staphyloccocus 1130, tube dilution
  MIC: 3.12 µg/mL
Vibrio coli 3811
  MIC: 12.5 µg/mL
Erwinia amylovora; 100 ppm.
  Percent Control of fire blight: 33%
Erwinia amylovora; 500 ppm.
  Percent Control of fire blight: 50%
P. multocida [7]; 0.1 gm./gal. in drinking water
  Survival: 9/10
P. multocida [7]; 0.2 gm./gal. in drinking water
  Survival: 6/10
P. multocida [8]; 2.5 mg./kg. subcutaneous
  Survival: 4/10
P. multocida [8]; 5.0 mg./kg. subcutaneous
  Survival: 3/10
P. multocida [8]; 10.0 mg./kg. subcutaneous
  Survival: 8/10
P. multocida [8]; 25.0 mg./kg. subcutaneous
  Survival: 9/10
Salmonella typhimurium
  responders at 60 mg/kg: 70%
S. typhimurium
  Survival: 29/48
S. typhimurium; surviving chicks
  Avg. Wt.: 67 gm.
Avian E. coli; [10]
  Avg. Wt.: 1219 gm.
  E. coli Lesions: 38/40
  Mortality: 10/40
Avian E. coli; [11]
  Avg. Wt.: 1308 gm.
  E. coli Lesions: 31/40
  Mortality: 6/40
Avian E. coli; [12]
  E. coli Lesions: 9/30
  Mortality: 1/30
  Wt.: 1139 gm.

## C=Cn1cc(C(N)=O)c([N+](=O)[O-])n1 [Compound 81, 3-nitro-1-vinyl-4-pyrazolecarboxamide]
Escherichia coli
  MIC: 1.56 µg/mL (≈ 8.56 µM)
Mycoplasma gallisepticum
  MIC: 1.56 µg/mL (≈ 8.56 µM)
Pasteurella multocida
  MIC: 1.56 µg/mL (≈ 8.56 µM)
Salmonella dublin
  MIC: 1.56 µg/mL (≈ 8.56 µM)
[6]; Staphylococcus aureus sp. 1130, tube dilution
  MIC: 1.56 µg/mL (≈ 8.56 µM)
Vibrio coli 3811
  MIC: 25 µg/mL (≈ 137 µM)
Streptococcus sp. 80
  MIC: 25 µg/mL (≈ 137 µM)
[9]
  percent of T. cruzi killed: 91%
Erwinia amylovora; 100 ppm.
  Percent Control of fire blight: 100%
Erwinia amylovora; 500 ppm.
  Percent Control of fire blight: 60%
Avian E. coli; [10]
  Avg. Wt.: 1109 gm.
  E. coli Lesions: 23/40
  Mortality: 5/40
Avian E. coli; [11]
  Avg. Wt.: 918 gm.
  E. coli Lesions: 20/40
  Mortality: 6/40
